Values joined by “and” are separate entries in the source; they are usually repeats but may differ in a detail not shown here. Equal values may be shown once. Read-outs that look alike come from different tables or passages of the source.
Experiments:
tubulin [1] = assay: Tubulin assembly (polymerization) assay; format: biochemical; details: at 20 μM
Method: The reaction mixtures contained 0.8 M monosodium glutamate (pH 6.6 with HCl in a 2 M stock solution), 10 μM tubulin, 4% (v/v) DMSO, and varying concentrations of compound. […] The extent of the reaction was measured.

hCA XII = molecular target: T1, hCA XII (Homo sapiens, UniProt O43570); assay: Stopped flow CO2 hydrase assay, hCA XII; format: biochemical; details: stopped flow technique, mean from three assays
T1 construct: made in house
T1 sequence (O43570 25-354): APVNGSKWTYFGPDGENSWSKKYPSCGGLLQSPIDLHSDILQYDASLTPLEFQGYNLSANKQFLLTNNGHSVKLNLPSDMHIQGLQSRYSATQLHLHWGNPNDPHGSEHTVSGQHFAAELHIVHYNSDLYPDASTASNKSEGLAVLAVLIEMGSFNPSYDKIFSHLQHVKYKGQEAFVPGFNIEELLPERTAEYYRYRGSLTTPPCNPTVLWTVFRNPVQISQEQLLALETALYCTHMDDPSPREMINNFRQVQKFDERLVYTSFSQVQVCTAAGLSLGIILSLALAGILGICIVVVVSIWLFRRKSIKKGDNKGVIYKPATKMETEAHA

NCI/ADR-RES cells [2] = assay: Inhibition of growth of NCI/ADR-RES DOX-resistant cells; format: cell-based, human; details: for IC50: DOX-resistant cell line derived from OVCAR-8, 96 h
Method: (§1) ; 11 and 15, NCI/ADR-RES and OVCAR-8 cells) to 4.8 (19, OVCAR-8 cells). […] . […] Cells were seeded in 96-well plates.

OVCAR-8 cells = assay: Inhibition of growth of OVCAR-8 cells; format: cell-based, human; details: ovarian tumor cell line 8, 96 h
Method: as §1

MCF-7 cells = assay: Inhibition of growth of MCF-7 cells; format: cell-based, human
Method: as §1

hCA IX = molecular target: T2, hCA IX (Homo sapiens, UniProt Q16790); assay: Stopped flow CO2 hydrase assay, hCA IX; format: biochemical
T2 construct: made in house

tubulin [3] = details: cited from earlier work
tubulin [4] = details: tubulin assembly; read-out: Tubulin IC50 ± SD; cited from earlier work
hCA I = molecular target: T3, hCA I (Homo sapiens, UniProt P00915); assay: Stopped flow CO2 hydrase assay, hCA I; format: biochemical; details: for fold reduction in the inhibition of hCA I: relative to 11 (sulfonamide at para position); for Ki: stopped flow technique, mean from three assays
T3 construct: made in house
T3 sequence (P00915 whole entry): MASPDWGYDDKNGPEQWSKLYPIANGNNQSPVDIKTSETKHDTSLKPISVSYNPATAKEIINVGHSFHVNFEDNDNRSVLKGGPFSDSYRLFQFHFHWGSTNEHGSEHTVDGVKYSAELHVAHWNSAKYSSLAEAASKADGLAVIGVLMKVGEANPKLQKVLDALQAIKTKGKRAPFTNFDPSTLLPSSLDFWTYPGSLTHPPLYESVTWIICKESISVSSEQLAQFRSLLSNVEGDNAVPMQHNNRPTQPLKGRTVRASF

hCA II = molecular target: T4, hCA II (Homo sapiens, UniProt P00918); assay: Stopped flow CO2 hydrase assay, hCA II; format: biochemical; details: stopped flow technique, mean from three assays
T4 construct: made in house

SW620 cells = assay: Inhibition of growth of SW620 cells (XTT); details: read-out: IC50 SW620; human colorectal carcinoma cells; combinations: each compound at its IC50 concentration
Method: (§3) In drug combination studies, each compound was used at the corresponding IC50 concentration.
(§4) Cells were grown in Dulbecco’s modified Eagle’s medium (D-MEM) supplemented with 10% fetal bovine serum (FBS) at 37 °C with 5% CO2. In all experiments, 300,000 cells were plated in 9 cm^2 dishes and exposed to test compound dissolved in DMSO (0.1% final concentration) at the indicated concentrations. […] Cells were kept at low passage, returning to the original frozen stocks every 3–4 months.

SW480 cells = assay: Inhibition of growth of SW480 cells (XTT); details: read-out: IC50 SW480; human colorectal carcinoma cells; combinations: each compound at its IC50 concentration
Method: as §3, §4

HCT116 cells = assay: Inhibition of growth of HCT116 cells (MTT); details: read-out: IC50 HCT116; human colorectal carcinoma cells; combinations: each compound at its IC50 concentration
Method: as §3, §4

MDCK/P-gp cells = assay: Viability of MDCK/P-gp cells with DOX alone or coincubated with 15 (WST-1); format: cell-based, canine; details: 5 μM DOX alone, 72 h
Method: (§2) Cells were seeded in 96-well plates.

HT29/DX cells = assay: Viability of HT29/DX cells with DOX alone or coincubated with 15 (WST-1); format: cell-based, human; details: 5 μM DOX alone, 72 h
Method: as §2

[5] = Viability of MDCK cells with DOX alone or coincubated with 15 (WST-1); format: cell-based, canine; details: dog, MDCK cells (sensitive, parental); read-out: cell viability
Method: as §2

NCI/ADR-RES cells [6] = tested on: NCI/ADR-RES cells; set-up: method as in PMID 22044164; details: DOX-resistant cell line; cited from earlier work
[7] = human nonmetastatic breast cancer epithelial cells
[8] = stopped flow technique, mean from three assays

Row | Molecule | Ki (hCA XII) [nM] | Ki (hCA IX; [8]) [nM] | Ki (hCA I) [nM] | Ki (hCA II) [nM] | other results
1 | 4-(3-(3,4,5-trimethoxybenzoyl)-1H-pyrrol-1-yl)benzenesulfonamide [Compound 11] | 11.5 | – | – | – | inhibition of tubulin assembly (tubulin [1]): did not inhibit tubulin assembly; IC50 (NCI/ADR-RES cells [2]): 1900 nM and 2200 nM; IC50 (OVCAR-8 cells): 1.9 ± 0.07 µM; IC50 (MCF-7 cells; [7]): 3.9 ± 0.08 µM
2 | 4-(3-Benzoyl-1H-indol-1-yl)benzenesulfonamide [Compound 18] | 52 | – | – | – | Ki (hCA IX): 31.6 nM
3 | 4-(3-Benzoyl-1H-pyrrol-1-yl)benzenesulfonamide [Compound 10] | 47.1 | 66 | – | – | –
4 | 4-(3-Benzoyl-4-phenyl-1H-pyrrol-1-yl)benzenesulfonamide [Compound 14] | 59.4 | 38.6 | – | – | –
5 | COc1ccc(/C=C\c2cc(OC)c(OC)c(OC)c2)cc1O [CSA4, combretastatin A-4, reference compound] | – | – | – | – | IC50 (MCF-7 cells; Homo sapiens, MCF7, reference compound in the MCF-7 assay): 0.015 µM
6 | COc1cc(C(=O)c2ccn(-c3ccccc3)c2)cc(OC)c1OC [Compound 2] | – | – | – | – | inhibition of colchicine binding (tubulin [3]): 81%; IC50 (tubulin [4]): 1500 nM
7 | COc1cc(C(=O)c2cn(-c3ccccc3)cc2-c2ccccc2)cc(OC)c1OC [Compound 3] | – | – | – | – | inhibition of colchicine binding (tubulin [3]): 66%; IC50 (tubulin [4]): 1100 nM
8 | COc1cc(C(=O)c2ccn(-c3cccc(S(N)(=O)=O)c3)c2)cc(OC)c1OC [Compound 12, 3-(3-(3,4,5-Trimethoxybenzoyl)-1H-pyrrol-1-yl)benzenesulfonamide] | 21.3 | 34.7 | 644 | 84.2 | EC50 (NCI/ADR-RES cells [2]; Homo sapiens, NCI/ADR-RES, DOX-resistant cell line): 2100 to 2200 nM; fold reduction in the inhibition of hCA I (hCA I): 6.7 fold
9 | COc1cc(C(=O)c2ccn(-c3ccccc3S(N)(=O)=O)c2)cc(OC)c1OC [Compound 13, 2-(3-(3,4,5-Trimethoxybenzoyl)-1H-pyrrol-1-yl)benzenesulfonamide] | 425 | 229 | 5840 | 888 | fold reduction in the inhibition of hCA I (hCA I): 61.0 fold
10 | COc1cc(C(=O)c2cn(-c3cccc(S(N)(=O)=O)c3)cc2-c2ccccc2)cc(OC)c1OC [Compound 16, 3-(3-Phenyl-4-(3,4,5-trimethoxybenzoyl)-1H-pyrrol-1-yl)benzenesulfonamide] | 28.9 | 39.1 | 1030 | 186 | –
11 | COc1cc(C(=O)c2cn(-c3ccccc3S(N)(=O)=O)cc2-c2ccccc2)cc(OC)c1OC [Compound 17, 2-(3-Phenyl-4-(3,4,5-trimethoxybenzoyl)-1H-pyrrol-1-yl)benzenesulfonamide] | 1000 | 8860 | > 10000 | > 10000 | –
12 | COc1cc(C(=O)c2cn(-c3ccc(S(N)(=O)=O)cc3)c3ccccc23)cc(OC)c1OC [Compound 19, 4-(3-(3,4,5-Trimethoxybenzoyl)-1H-indol-1-yl)benzenesulfonamide] | – | – | 446 | 67.8 | inhibition of tubulin assembly (tubulin [1]): partial inhibition; IC50 (SW620 cells): 45.4 ± 1.7 µM; IC50 (SW480 cells): 37.4 ± 1.4 µM; IC50 (HCT116 cells): 14.9 ± 1.3 µM; IC50 (NCI/ADR-RES cells [2]): 2100 ± 200 nM; Ki (hCA IX): 7.3 nM; IC50 (OVCAR-8 cells): 4.8 ± 0.3 µM; IC50 (MCF-7 cells; [7]): 3.6 ± 1 µM
13 | COc1cc(C(=O)c2cn(-c3cccc(S(N)(=O)=O)c3)c3ccccc23)cc(OC)c1OC [Compound 20, 3-(3-(3,4,5-Trimethoxybenzoyl)-1H-indol-1-yl)benzenesulfonamide] | 58.1 | 69 | 943 | 229 | –
14 | COc1cc(C(=O)c2cn(-c3ccccc3S(N)(=O)=O)c3ccccc23)cc(OC)c1OC [Compound 21, 2-(3-(3,4,5-Trimethoxybenzoyl)-1H-indol-1-yl)benzenesulfonamide] | 1190 | 7750 | > 10000 | > 10000 | –
15 | COc1cccc2c1C(=O)c1c(O)c3c(c(O)c1C2=O)C[C@@](O)(C(=O)CO)C[C@@H]3O[C@H]1C[C@H](N)[C@H](O)[C@H](C)O1 [DOX, doxorubicin, reference compound] | – | – | – | – | cell viability (MDCK/P-gp cells): did not affect the viability; cell viability (HT29/DX cells): did not affect the viability; viability at 72 h, 5 μM [5]: < 30%
16 | CCC1=C[C@@H]2CN(C1)Cc1c([nH]c3ccccc13)[C@@](C(=O)OC)(c1cc3c(cc1OC)N(C)[C@H]1[C@@](O)(C(=O)OC)[C@H](OC(C)=O)[C@]4(CC)C=CCN5CC[C@]31[C@@H]54)C2 [vinorelbine] | – | – | – | – | IC50 (NCI/ADR-RES cells [6]): 5 ± 1 µM

Source: publication PMC10641813 (Journal of Medicinal Chemistry, 2023)
